Data published in patent US10519211B2, “Compounds as peptidic GLP1/glucagon/GIP receptor agonists” (SANOFI, priority 2016, dated 2019).
Numbered stars: 1 amine (or outer) side, 2 acyl side, 3 side chain; on linkers, the order of the positions; unused ones are H or OH. Square brackets hold non-standard residues; d marks the D form. Side chains are listed from the residue outwards. Peptide text beside a SMILES is read from it. * marks the point of attachment. γGlu = O=C(O)[C@H](CCC(=O)[*:2])N[*:1]; Palmitoyl = CCCCCCCCCCCCCCCC(=O)*; Aib = CC(C)(N)C(=O)O

How the values were obtained:
[1] = Chemical stability assessment (UPLC-UV, relative purity loss); type: physicochemical; settings: 1 mg/ml, 25 mM acetate buffer pH 4.5 with m-cresol (buffer system A)
Procedure, shortened: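 Peptide at 1 mg/mL (purity-corrected) in 25 mM acetate pH 4.5 with methionine, m-cresol and glycerol, sterile-filtered, stored 28 days at 40° C. Purity measured by UPLC-UV as peptide peak area fraction at start and after storage; value is relative percent purity loss.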

[2] = Thioflavin T (ThT) assay for physical stability (fibrillation); type: physicochemical; settings: 3 mg/ml, 100 mM acetate pH 4.5 with m-cresol, shaking at 37° C.
Procedure, shortened: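 Peptide at 3 mg/ml with 100 μM ThT in 100 mM acetate pH 4.5 with m-cresol, stressed at 37° C by cycles of 10 s shaking at 960 rpm and 50 s rest. Fluorescence read every 20 minutes, eight replicates; lag time in hours.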

[3] = test system: female diet-induced obese (DIO) C57BL/6NHsd mice; assay: Acute and chronic effects after subcutaneous treatment in female diet-induced obese (DIO) mice; type: in vivo, mouse
Procedure: Female C57BL/6NHsd mice were ordered group housed from Envigo RMS Inc., shipped group housed and remained group housed with shipped cage mates in shoebox caging with wood chip bedding until day 38 of the predose phase. At the study start mice were between 25-26 weeks old.
Mice were housed under vivarium conditions that included a 12 h light/dark cycle (light phase 04:00 AM-4:00 PM), room temperatures between 23-26° C. and a relative humidity between 30-70%. All animals had free access to water and a high fat diet (TD97366) for 16 weeks prior to pharmacological intervention (dosing phase). Feed was replaced with fresh feed weekly until and for the last time on day 38 of the predose phase. During the subsequent dosing phase, approximately 50% of the remaining feed were removed, replaced with fresh feed, and pellets were mixed evenly once per week.
On predose day 38, obese DIO mice were assigned to treatment groups (n=8) to match mean body masses between all DIO groups. An age-matched group with ad libitum access to a rodent maintenance diet (Teklad Global Diets Rodent 2014, pelleted) was included in the study as a lean control group. In the predosing phase from day 32 through 38, all study animals were treated with vehicle (Phosphate Buffered Saline, PBS, Gibco, without CaCl2 and MgCl2) once daily (s.c. approximately 0.2 mL/mouse).
On day 37 of the predose phase, the test article was diluted with PBS to a concentration of 100 μg/mL and aliquots of this stock solution were stored at approximately ≤−60° C. Stock aliquots were thawed for weekly use and thereafter stored in a refrigerator at approximately 4° C. The injected test article solution was prepared fresh once on each dosing day by diluting stock solution with PBS to achieve the desired concentration.
Mice were treated twice daily with a s.c. injection of PBS-vehicle or the test article for 28 days. The morning dosing was initiated and completed between 06:00 and 07:30 AM and the afternoon dosing between 2:00 and 3:30 PM. On day 28 of the dosing phase only the morning dose was administered. The applied volume was 5 ml/kg and the dose was adjusted to the most recent body mass recording of each individual.
Animals had unlimited access to water and feed during the experiment. On day 1 of the dosing phase approximately 5 μL of blood were collected via tail clips at hour 0, prior to the first s.c. dose of PBS-vehicle or test-article as well as 1, 2, 3, 4, 6, and 24 hours post-dose. Animals received the second s.c. dose of PBS-vehicle or test-article 8 hours after the first dose. The 24 hour blood collection of the blood glucose profile was performed prior to dosing on day 2. Glucose measurements were performed in whole blood and in duplicate or triplicate using Aviva glucometers.
Body mass was measured daily approximately between 06:00-07:30 AM from day 32 through 38 of the predosing phase and throughout the 28 days of the dosing phase. During the dosing phase mice were treated twice daily with either a s.c. injection of PBS-vehicle or test article.
To determine whole body fat mass Quantitative Nuclear Magnetic Resonance (QNMR) measurements were performed on predosing day 37 and on day 26 of the dosing phase. During the dosing phase mice were treated twice daily with either a s.c. injection of PBS-vehicle or test article.
On day 28 blood was collected prior to any other inlife activities for determination of plasma insulin concentrations. Then the morning dose was administered and necropsy was performed 4 hours post-dose. For this purpose animals were anesthetized with isoflurane and blood was collected by orbital bleeding.
On day 28 and 4 hours after the morning dose, blood was collected from mice under isoflurane anesthesia as described above. Then mice were killed and livers were collected and weighed.
Data are depicted as means±SEM. […] A One-Way ANOVA and Tukey Test were used for pairwise multiple comparisons of all groups (n=8/group, deviations from group size are indicated). […]

[4] = 30 μg/kg s.c. twice daily, day 28, in words
[5] = 30 μg/kg s.c. twice daily, in words
[6] = Table 11, twice-daily 30 μg/kg s.c., day 28, mean ± SEM

With CCCCCCCCCCCCCCCC(=O)N[C@@H](CCC(=O)N[C@@H](CCC(=O)NCCCC[C@H](NC(=O)[C@H](CC(C)C)NC(=O)[C@H](CCCCN)NC(=O)[C@H](CO)NC(=O)[C@H](CC(C)C)NC(=O)[C@H](CC(=O)O)NC(=O)[C@H](CO)NC(=O)[C@@H](NC(=O)[C@H](Cc1ccccc1)NC(=O)[C@@H](NC(=O)CNC(=O)[C@H](CCC(N)=O)NC(=O)C(C)(C)NC(=O)[C@@H](N)Cc1c[nH]cn1)[C@@H](C)O)[C@@H](C)O)C(=O)N[C@@H](CCC(=O)O)C(=O)N[C@@H](CCC(=O)O)C(=O)N[C@@H](CCC(N)=O)C(=O)N[C@@H](CCCNC(=N)N)C(=O)N[C@@H](CCC(N)=O)C(=O)NC(C)(C)C(=O)N[C@@H](CCC(=O)O)C(=O)N[C@@H](Cc1ccccc1)C(=O)N[C@H](C(=O)N[C@@H](CCC(=O)O)C(=O)N[C@@H](Cc1c[nH]c2ccccc12)C(=O)N[C@@H](CC(C)C)C(=O)N[C@@H](CCCCN)C(=O)N[C@@H](C)C(=O)N[C@H](C)C(=O)NCC(=O)N1CCC[C@H]1C(=O)N1CCC[C@H]1C(=O)N[C@@H](CO)C(=O)NC(C)(C)C(=O)N[C@@H](CCCCN)C(=O)N1CCC[C@H]1C(=O)N1CCC[C@H]1C(=O)N1CCC[C@H]1C(=O)N[C@@H](CCCCN)C(N)=O)[C@@H](C)CC)C(=O)O)C(=O)O [SEQ ID NO: 10, H-Aib-Q-G-T-F-T-S-D-L-S-K-L-K[gGlu-gGlu-Palm]-E-E-Q-R-Q-Aib-E-F-I-E-W-L-K-A-dAla-G-P-P-S-Aib-K-P-P-P-K-NH2] (H-H[Aib]QGTFTSDLSKLK([γGlu-γGlu-Palmitoyl])EEQRQ[Aib]EFIEWLKA[dA]GPPS[Aib]KPPPK-NH2) the “Chemical stability [relative purity loss 28 days 40° C.] (%) at pH 4.5” value [1] was 7.4%, the “Lag time before increase” value [2] was >45 h and the “Body mass compared to the DIO-Vehicle group” value ([3]; 30 μg/kg s.c. twice daily, 28 days, in words) was “statistically significant decrease in body mass”. The “Plasma insulin concentrations compared to DIO vehicle” value [3, 4] was “statistically significant reduction in plasma insulin concentrations”, the “Plasma total cholesterol concentrations compared to DIO vehicle” value [3, 4] was “statistically significant reduction in plasma total cholesterol concentrations” and the “Liver mass on day 28 compared to DIO animals treated with vehicle” value [3, 5] was “statistically significantly lower liver mass”. The “Plasma alanine aminotransferase concentration on day 28 compared to DIO vehicle” value [3, 5] was “statistically significantly lower plasma alanine aminotransferase concentration”, the “24 hour blood glucose profile following first treatment” value ([3]; 30 μg/kg s.c., day 1, fed DIO mice, vs DIO control, in words) was “decrease in blood glucose concentrations below concentrations observed in DIO control mice” and the “Body mass change” value ([3]; Table 11, twice-daily 30 μg/kg s.c., 28 days, mean ± SEM) was -7.14 ± 0.64 g. The “Whole body fat mass change” value ([3]; Table 11, twice-daily 30 μg/kg s.c., QNMR predose vs day 26, mean ± SEM) was -6.48 ± 0.90 g, the “Terminal liver mass (g)” value [3, 6] was “+1.07 ± 0.04 g” and the “Terminal plasma alanine aminotransferase (U/L)” value [3, 6] was “+56.75 ± 4.65 U/L”. For the same molecule, the “Terminal plasma insulin (U/L)” value [3, 6] was “+35.81 ± 2.79 U/L” and the “Terminal plasma total cholesterol (mmol/L)” value [3, 6] was “+4.28 ± 0.15 mmol/L”.
